Columns and labels:
Format in all cases: biochemical
[1] = target: CDK6/Cyclin D3 (Homo sapiens, UniProt Q00534); assay: CDK6/Cyclin D3 kinase assay (Nanosyn, Caliper microfluidic); conditions: 12-point dose-response, ATP at Km (300 μM), 3 hr
Method in brief: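 Caliper microfluidic assay with 2 nM enzyme, 300 μM ATP and 1 μM phosphoacceptor peptide, incubated for 3 hr. Compounds were run as 12-point dose-response curves in singlicate.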

[2] = target: CDK2/Cyclin A (Homo sapiens, UniProt P24941); assay: CDK2/Cyclin A kinase assay (Nanosyn, Caliper microfluidic); conditions: 12-point dose-response, ATP at Km (50 μM), 3 hr
Method in brief: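 Caliper microfluidic mobility-shift read-out; 0.1 nM enzyme, 50 μM ATP (Km), 1 μM peptide substrate, 3 hr incubation. 12-point dose-response in singlicate; staurosporine as reference.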

[3] = target: CDK5/p35 (Homo sapiens, UniProt Q00535); assay: CDK5/p35 kinase assay (Nanosyn, Caliper microfluidic); conditions: 12-point dose-response, ATP at Km (20 μM), 3 hr
Method in brief: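 Microfluidic mobility-shift kinase assay with 0.05 nM CDK5/p35, 20 μM ATP (Km) and 1 μM peptide substrate, 3 hr incubation. Compounds tested as 12-point dose–response in singlicate; staurosporine as reference.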

[4] = target: CDK3/Cyclin E (Homo sapiens, UniProt Q00526); assay: CDK3/Cyclin E kinase assay (Nanosyn, Caliper microfluidic); conditions: 12-point dose-response, ATP at Km (400 μM), 3 hr
Method in brief: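 Caliper microfluidic mobility-shift read-out with 1 nM enzyme, 400 μM ATP (stated as Km) and 1 μM peptide substrate, 3 hr incubation. Compounds run as 12-point dose-response in singlicate.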

[5] = target: CDK7/Cyclin H (Homo sapiens, UniProt P50613); assay: CDK7/Cyclin H kinase assay (Nanosyn, Caliper microfluidic); conditions: 12-point dose-response, ATP at Km (50 μM), 17 hr
Method in brief: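 Caliper microfluidic mobility-shift assay with 10 nM CDK7/Cyclin H, 50 μM ATP (Km) and 1 μM peptide substrate, incubated 17 hr. Compounds run in 12-point dose-response, singlicate.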

[6] = target: CDK1/Cyclin B1 (Homo sapiens, UniProt P06493); assay: CDK1/Cyclin B1 kinase assay (Nanosyn, Caliper microfluidic); conditions: 12-point dose-response, ATP at Km (40 μM), 3 hr
Method in brief: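 Mobility-shift microfluidic kinase assay, 12-point dose-response in singlicate. Conditions: 0.08 nM enzyme, 40 μM ATP (Km), 1 μM peptide substrate, 3 hr incubation; staurosporine as reference.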

[7] = target: CDK5/p25 (Homo sapiens, UniProt Q00535); assay: CDK5/p25 kinase assay (Nanosyn, Caliper microfluidic); conditions: 12-point dose-response, ATP at Km (20 μM), 3 hr
Method in brief: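 Caliper microfluidic mobility-shift assay, 12-point dose-response in singlicate. CDK5/p25 at 0.1 nM with 20 μM ATP (Km) and 1 μM peptide substrate. Incubation 3 hr.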

[8] = target: CDK9/Cyclin T (Homo sapiens, UniProt P50750); assay: CDK9/Cyclin T kinase assay (Nanosyn, Caliper microfluidic); conditions: 12-point dose-response, ATP at Km (10 μM), 17 hr; Table 5
Method in brief: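 Caliper microfluidic mobility-shift read-out, 12-point dose-response in singlicate at ATP Km with 1 μM peptide substrate; staurosporine reference.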

[9] = target: CDK4/Cyclin D1 (Homo sapiens, UniProt P11802); assay: CDK4/Cyclin D1 kinase assay (Nanosyn, Caliper microfluidic); conditions: 12-point dose-response, ATP at Km (200 μM), 3 hr; Table 4
Method in brief: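 Caliper microfluidic mobility-shift read-out, 12-point dose-response in singlicate. 1 nM enzyme, 200 μM ATP (Km), 1 μM peptide substrate, 3 hr incubation; staurosporine as reference.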

[10] = target: CDK2/Cyclin E (Homo sapiens, UniProt P24941); assay: CDK2/Cyclin E kinase assay (Nanosyn, Caliper microfluidic); conditions: 12-point dose-response, ATP at Km (100 μM), 3 hr
Method in brief: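 Caliper microfluidic mobility-shift readout of phosphorylation of 1 μM substrate peptide by 0.15 nM enzyme at 100 μM ATP (stated as Km), 3 hr incubation. 12-point dose-response in singlicate, staurosporine as reference.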

Sequence of CDK1/Cyclin B1 (P06493 whole entry): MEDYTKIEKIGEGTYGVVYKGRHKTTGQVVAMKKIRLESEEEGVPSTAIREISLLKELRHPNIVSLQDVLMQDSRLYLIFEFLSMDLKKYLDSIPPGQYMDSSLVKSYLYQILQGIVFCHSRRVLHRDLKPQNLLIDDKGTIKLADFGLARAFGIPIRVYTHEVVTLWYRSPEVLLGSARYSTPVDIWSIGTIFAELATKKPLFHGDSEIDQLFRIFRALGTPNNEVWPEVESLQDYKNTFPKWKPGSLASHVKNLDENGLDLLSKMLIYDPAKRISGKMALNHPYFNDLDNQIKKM
Sequence of CDK1/Cyclin B1 (P14635 whole entry partner): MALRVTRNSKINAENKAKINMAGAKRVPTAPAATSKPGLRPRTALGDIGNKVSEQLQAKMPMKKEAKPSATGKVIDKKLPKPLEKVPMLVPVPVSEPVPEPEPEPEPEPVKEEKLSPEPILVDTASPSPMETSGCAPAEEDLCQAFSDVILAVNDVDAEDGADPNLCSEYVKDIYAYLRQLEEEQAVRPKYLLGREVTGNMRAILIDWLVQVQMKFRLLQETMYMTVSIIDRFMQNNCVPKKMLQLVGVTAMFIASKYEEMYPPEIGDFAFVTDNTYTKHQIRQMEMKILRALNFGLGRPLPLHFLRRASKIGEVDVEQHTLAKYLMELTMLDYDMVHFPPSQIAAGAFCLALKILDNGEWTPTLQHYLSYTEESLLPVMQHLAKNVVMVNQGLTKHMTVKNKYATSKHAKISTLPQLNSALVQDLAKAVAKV
Sequence of CDK4/Cyclin D1 (P11802 whole entry): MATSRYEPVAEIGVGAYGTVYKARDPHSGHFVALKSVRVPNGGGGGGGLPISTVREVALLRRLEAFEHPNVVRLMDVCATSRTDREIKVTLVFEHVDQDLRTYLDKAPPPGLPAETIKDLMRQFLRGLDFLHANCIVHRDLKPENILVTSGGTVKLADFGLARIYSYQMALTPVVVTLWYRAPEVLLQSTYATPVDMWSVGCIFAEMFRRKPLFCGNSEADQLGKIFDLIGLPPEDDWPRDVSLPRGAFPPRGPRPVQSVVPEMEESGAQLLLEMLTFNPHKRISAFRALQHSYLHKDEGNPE
Sequence of CDK4/Cyclin D1 (P24385 whole entry partner): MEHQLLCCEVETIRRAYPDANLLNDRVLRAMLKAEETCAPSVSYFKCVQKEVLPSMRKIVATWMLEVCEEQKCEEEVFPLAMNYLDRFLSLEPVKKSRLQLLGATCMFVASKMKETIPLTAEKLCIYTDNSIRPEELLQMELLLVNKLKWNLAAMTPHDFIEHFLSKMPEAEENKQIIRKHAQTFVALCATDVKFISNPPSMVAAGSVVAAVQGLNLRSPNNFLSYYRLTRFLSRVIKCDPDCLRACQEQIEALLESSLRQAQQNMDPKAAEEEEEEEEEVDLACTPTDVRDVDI
Sequence of CDK5/p25 (Q00535 whole entry): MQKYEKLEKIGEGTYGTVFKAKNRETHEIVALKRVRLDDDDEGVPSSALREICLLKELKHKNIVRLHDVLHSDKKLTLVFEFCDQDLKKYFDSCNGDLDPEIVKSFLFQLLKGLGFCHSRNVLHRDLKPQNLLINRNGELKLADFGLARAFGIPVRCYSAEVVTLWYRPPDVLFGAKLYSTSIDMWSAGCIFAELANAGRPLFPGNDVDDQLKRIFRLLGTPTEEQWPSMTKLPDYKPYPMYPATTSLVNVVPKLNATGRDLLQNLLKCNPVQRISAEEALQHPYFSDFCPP
Sequence of CDK5/p25 (Q15078 99-307 partner limits assumed): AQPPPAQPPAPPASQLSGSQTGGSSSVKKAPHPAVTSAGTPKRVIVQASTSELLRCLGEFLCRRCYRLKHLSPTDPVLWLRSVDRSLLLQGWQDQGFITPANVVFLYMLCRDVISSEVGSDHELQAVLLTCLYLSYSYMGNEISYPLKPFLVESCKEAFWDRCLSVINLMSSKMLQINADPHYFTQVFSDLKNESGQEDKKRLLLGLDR
Sequence of CDK5/p35 (Q00535 whole entry): as the sequence (Q00535 whole entry) above
Sequence of CDK5/p35 (Q15078 whole entry partner): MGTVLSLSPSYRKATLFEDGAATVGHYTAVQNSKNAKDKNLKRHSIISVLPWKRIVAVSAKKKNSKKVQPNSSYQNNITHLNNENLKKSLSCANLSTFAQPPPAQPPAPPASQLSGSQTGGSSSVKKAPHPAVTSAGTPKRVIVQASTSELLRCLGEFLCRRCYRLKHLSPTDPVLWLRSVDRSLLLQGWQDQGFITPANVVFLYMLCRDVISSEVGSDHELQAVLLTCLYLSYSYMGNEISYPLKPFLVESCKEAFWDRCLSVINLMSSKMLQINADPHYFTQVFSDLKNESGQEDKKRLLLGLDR
Sequence of CDK9/Cyclin T (P50750 whole entry): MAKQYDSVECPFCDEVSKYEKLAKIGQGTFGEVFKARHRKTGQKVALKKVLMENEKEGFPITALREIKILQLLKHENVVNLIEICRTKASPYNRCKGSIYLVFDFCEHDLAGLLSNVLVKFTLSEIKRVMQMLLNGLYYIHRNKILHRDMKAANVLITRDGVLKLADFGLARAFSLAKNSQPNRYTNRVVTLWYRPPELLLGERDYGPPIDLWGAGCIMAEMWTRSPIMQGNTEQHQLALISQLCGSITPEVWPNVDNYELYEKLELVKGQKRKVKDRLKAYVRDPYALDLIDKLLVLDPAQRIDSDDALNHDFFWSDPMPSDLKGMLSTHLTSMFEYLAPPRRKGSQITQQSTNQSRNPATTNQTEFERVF
Sequence of CDK9/Cyclin T (O60563 whole entry partner): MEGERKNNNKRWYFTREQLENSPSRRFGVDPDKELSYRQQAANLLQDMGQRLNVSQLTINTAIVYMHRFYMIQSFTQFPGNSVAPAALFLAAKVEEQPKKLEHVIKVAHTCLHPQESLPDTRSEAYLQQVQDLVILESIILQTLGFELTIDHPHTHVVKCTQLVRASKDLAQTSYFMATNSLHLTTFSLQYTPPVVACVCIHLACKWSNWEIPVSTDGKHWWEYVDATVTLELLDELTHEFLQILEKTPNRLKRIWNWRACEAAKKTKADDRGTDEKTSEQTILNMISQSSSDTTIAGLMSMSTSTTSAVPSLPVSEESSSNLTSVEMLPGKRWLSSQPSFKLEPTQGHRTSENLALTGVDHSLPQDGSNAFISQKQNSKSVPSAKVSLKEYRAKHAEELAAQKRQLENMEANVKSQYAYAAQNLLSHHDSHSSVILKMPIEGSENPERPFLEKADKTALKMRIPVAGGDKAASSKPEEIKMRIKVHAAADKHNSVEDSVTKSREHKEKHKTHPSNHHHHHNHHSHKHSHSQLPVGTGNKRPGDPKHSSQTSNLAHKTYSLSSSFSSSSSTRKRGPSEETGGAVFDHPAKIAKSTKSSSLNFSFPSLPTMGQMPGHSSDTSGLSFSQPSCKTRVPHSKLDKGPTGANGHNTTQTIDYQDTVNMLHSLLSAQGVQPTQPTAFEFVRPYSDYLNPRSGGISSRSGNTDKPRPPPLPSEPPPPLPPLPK
Sequence of CDK6/Cyclin D3 (Q00534 whole entry): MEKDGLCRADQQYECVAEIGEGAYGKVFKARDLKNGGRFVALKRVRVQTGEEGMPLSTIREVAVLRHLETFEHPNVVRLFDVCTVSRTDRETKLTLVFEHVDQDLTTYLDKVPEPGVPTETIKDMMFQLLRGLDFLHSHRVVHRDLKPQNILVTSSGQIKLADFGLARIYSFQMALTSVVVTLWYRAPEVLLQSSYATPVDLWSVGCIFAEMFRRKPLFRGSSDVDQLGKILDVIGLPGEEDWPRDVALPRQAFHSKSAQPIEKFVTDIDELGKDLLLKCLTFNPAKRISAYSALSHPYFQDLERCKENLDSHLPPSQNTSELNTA
Sequence of CDK6/Cyclin D3 (P30281 whole entry partner): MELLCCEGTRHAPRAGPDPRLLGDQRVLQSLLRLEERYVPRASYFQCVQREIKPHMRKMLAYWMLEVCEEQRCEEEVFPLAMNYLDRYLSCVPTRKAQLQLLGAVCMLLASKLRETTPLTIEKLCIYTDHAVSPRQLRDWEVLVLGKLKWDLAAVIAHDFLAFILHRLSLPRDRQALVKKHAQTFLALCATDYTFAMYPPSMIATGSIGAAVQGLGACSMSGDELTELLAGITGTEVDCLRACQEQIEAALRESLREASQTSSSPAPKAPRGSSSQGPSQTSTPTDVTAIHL

| Compound | IC50 [1] | IC50 [2] | IC50 [3] | IC50 [4] | IC50 [5] | IC50 [6] | IC50 [7] | IC50 [8] | IC50 [9] | IC50 [10] |
| --- | --- | --- | --- | --- | --- | --- | --- | --- | --- | --- |
| S=C1NCC2(CCCCC2)n2c1cc1cnc(N[C@@H]3CCCNC3)nc12 [Compound 41, (R)-2′-(piperidin-3-ylamino)-7′,8′-dihydro-6′H-spiro[cyclohexane-1,9′-pyrazino[1′,2′:1,5]pyrrolo[2,3-d]pyrimidine]-6′-thione] | 23 nM | 150 nM | 1100 nM | 210 nM | 85 nM | 330 nM | 970 nM | 4.3 nM | 6.7 nM | 310 nM |
| O=C1NCC2(CCCCC2)n2c1cc1cnc(N[C@H]3CC[C@H](N4CCOCC4)CC3)nc12 [Compound 44, 2′-(((1,4-trans)-4-morpholinocyclohexyl)amino)-7′,8′-dihydro-6′H-spiro[cyclohexane-1,9′-pyrazino[1′,2′:1,5]pyrrolo[2,3-d]pyrimidin]-6′-one] | 100 nM | 170 nM | 320 nM | 470 nM | 270 nM | 490 nM | 270 nM | 6.2 nM | 24 nM | 290 nM |
| O=C1NCC2(CCCCC2)n2c1cc1cnc(N[C@@H]3CCCNC3)nc12 [Compound 48, (R)-2′-(piperidin-3-ylamino)-7′,8′-dihydro-6′H-spiro[cyclohexane-1,9′-pyrazino[1′,2′:1,5]pyrrolo[2,3-d]pyrimidin]-6′-one] | 230 nM | 390 nM | 1300 nM | 1000 nM | 330 nM | 510 nM | 1200 nM | 9 nM | 51 nM | 1100 nM |
| N[C@H]1CC[C@H](Nc2ncc3cc4n(c3n2)C2(CCCCC2)CNC4=O)CC1 [Compound 49, 2′-(((1r,4r)-4-aminocyclohexyl)amino)-7′,8′-dihydro-6′H-spiro[cyclohexane-1,9′-pyrazino[1′,2′:1,5]pyrrolo[2,3-d]pyrimidin]-6′-one] | 40 nM | 33 nM | 160 nM | 110 nM | 100 nM | 140 nM | 140 nM | 2.2 nM | 6.8 nM | 72 nM |
| C1=NCC2(CCCCC2)n2c1cc1cnc(N[C@@H]3CCCNC3)nc12 [Compound 51, (R)-N-(piperidin-3-yl)-8′H-spiro[cyclohexane-1,9′-pyrazino[1′,2′:1,5]pyrrolo[2,3-d]pyrimidin]-2′-amine] | 1100 nM | 900 nM | 1500 nM | 610 nM | 230 nM | 1600 nM | 1500 nM | 200 nM | 290 nM | 490 nM |
| C[C@H]1CC[C@@H](Nc2ncc3cc4n(c3n2)C2(CCCCC2)CN=C4)CC1 [Compound 53, N-((1s,4s)-4-methylcyclohexyl)-8′H-spiro[cyclohexane-1,9′-pyrazino[1′,2′:1,5]pyrrolo[2,3-d]pyrimidin]-2′-amine] | 9000 nM | 670 nM | 1500 nM | 850 nM | 4600 nM | 1500 nM | 1500 nM | 890 nM | 2900 nM | 480 nM |

Other lines, results leading:

| IC50 [1] | IC50 [2] | IC50 [3] | IC50 [4] | IC50 [5] | IC50 [6] | IC50 [7] | IC50 [8] | IC50 [9] | IC50 [10] | Compound |
| --- | --- | --- | --- | --- | --- | --- | --- | --- | --- | --- |
| 79 nM | 100 nM | 51 nM | 17 nM | 10 nM | 61 nM | 40 nM | 3.4 nM | 23 nM | 110 nM | S=C1NCC2(CCCCC2)n2c1cc1cnc(N[C@H]3CCCNC3)nc12 [Compound 40, (S)-2′-(piperidin-3-ylamino)-7′,8′-dihydro-6′H-spiro[cyclohexane-1,9′-pyrazino[1′,2′:1,5]pyrrolo[2,3-d]pyrimidine]-6′-thione] |
| 22 nM | 4.3 nM | 7.5 nM | 12 nM | 240 nM | 8.8 nM | 5.5 nM | 1.2 nM | 8.9 nM | 7.8 nM | NS(=O)(=O)c1cccc(Nc2ncc3cc4n(c3n2)C2(CCCCC2)CNC4=O)c1 [Compound 42, 3-((6′-oxo-7′,8′-dihydro-6′H-spiro[cyclohexane-1,9′-pyrazino[1′,2′:1,5]pyrrolo[2,3-d]pyrimidin]-2′-yl)amino)benzenesulfonamide] |
| > 100000 nM | 99000 nM | 94000 nM | > 100000 nM | > 100000 nM | > 100000 nM | 99000 nM | 10000 nM | 47000 nM | > 100000 nM | NS(=O)(=O)Cc1cccc(Nc2ncc3cc4n(c3n2)C2(CCCCC2)CNC4=O)c1 [Compound 43, (3-((6′-oxo-7′,8′-dihydro-6′H-spiro[cyclohexane-1,9′-pyrazino[1′,2′:1,5]pyrrolo[2,3-d]pyrimidin]-2′-yl)amino)phenyl)methanesulfonamide] |
| 47 nM | 140 nM | 310 nM | 240 nM | 86 nM | 270 nM | 360 nM | 3.3 nM | 11 nM | 260 nM | CN(C)[C@H]1CC[C@H](Nc2ncc3cc4n(c3n2)C2(CCCCC2)CNC4=O)CC1 [Compound 45, 2′-(((1,4-trans)-4-(dimethylamino)cyclohexyl)amino)-7′,8′-dihydro-6′H-spiro[cyclohexane-1,9′-pyrazino[1′,2′:1,5]pyrrolo[2,3-d]pyrimidin]-6′-one] |
| 78 nM | 250 nM | 710 nM | 520 nM | 280 nM | 510 nM | 760 nM | 6.4 nM | 21 nM | 470 nM | O=C1NCC2(CCCCC2)n2c1cc1cnc(N[C@H]3CC[C@H](N4CCCCC4)CC3)nc12 [Compound 46, 2′-(((1,4-trans)-4-(piperidin-1-yl)cyclohexyl)amino)-7′,8′-dihydro-6′H-spiro[cyclohexane-1,9′-pyrazino[1′,2′:1,5]pyrrolo[2,3-d]pyrimidin]-6′-one] |
| 370 nM | 350 nM | 250 nM | 110 nM | 27 nM | 170 nM | 230 nM | 2.6 nM | 130 nM | 550 nM | O=C1NCC2(CCCCC2)n2c1cc1cnc(N[C@H]3CCCNC3)nc12 [Compound 47, (S)-2′-(piperidin-3-ylamino)-7′,8′-dihydro-6′H-spiro[cyclohexane-1,9′-pyrazino[1′,2′:1,5]pyrrolo[2,3-d]pyrimidin]-6′-one] |
| 1100 nM | 280 nM | 180 nM | 64 nM | 42 nM | 280 nM | 190 nM | 23 nM | 310 nM | 190 nM | C1=NCC2(CCCCC2)n2c1cc1cnc(N[C@H]3CCCNC3)nc12 [Compound 50, (S)-N-(piperidin-3-yl)-8′H-spiro[cyclohexane-1,9′-pyrazino[1′,2′:1,5]pyrrolo[2,3-d]pyrimidin]-2′-amine] |
| 250 nM | 16 nM | 32 nM | 24 nM | 280 nM | 78 nM | 31 nM | 58 nM | 67 nM | 8.7 nM | C1=NCC2(CCCCC2)n2c1cc1cnc(NC3CCOCC3)nc12 [Compound 52, N-(tetrahydro-2H-pyran-4-yl)-8′H-spiro[cyclohexane-1,9′-pyrazino[1′,2′:1,5]pyrrolo[2,3-d]pyrimidin]-2′-amine] |
